Experiment [1] deals with CD4 and CD8 T cells. As to the kind of experiment: CD4 and CD8 T cell responses in spleens of Panc-02 mice by flow cytometry. The experiment is classed as in vivo. The conditions noted are these: spleens of 3 mice pooled. In general terms: Flow cytometry measures light scatter and fluorescence of single cells or particles in a stream.
For experiment [2], the system named is CD4 and CD8 T cells. As to the kind of experiment: CD4 and CD8 T cell responses in spleen of KPC mice by flow cytometry. The experiment is classed as in vivo.
Another experiment has as its system MDSC (CD11b+Gr1+). As to the kind of experiment: Analysis of MDSC (CD11b+Gr1+) in blood of Panc-02 mice by flow cytometry. The experiment is classed as in vivo. As for the experimental part:
(§1) FIG. 7A-7B. […] C57B16 mice were challenged with Panc-02 tumor cells and treated with Listeria-TT+GEM as described in FIG. 7A. Two days after the last treatment the percentage of MDSC (CD11b+Gr1+) was determined in blood by flow cytometry. N=5 mice per group. Representative of two experiments. […] C57B16 mice were challenged with Panc-02 tumor cells and treated with Listeria-TT+GEM as described in FIG. 7A. Two days after the last treatment the percentage of TAM (CD11b+F4/80+) was determined in the primary tumors by flow cytometry. N=5 mice per group. Representative of two experiments. The error bars represent SEM.
(§2) Panc-02 mice with advanced pancreatic cancer were treated with one high and multiple low doses of Listeria-TT (LM-TT) and GEM as described in FIG. 7A. MDSC and TAM were analyzed in the metastases by flow cytometry. Metastases of 3 mice were pooled. This experiment was performed once.

In another experiment the test system is TAM (CD11b+F4/80+). As to the kind of experiment: Analysis of TAM (CD11b+F4/80+) in metastases of Panc-02 mice by flow cytometry. Format: in vivo. As for the experimental part:
as §1, §2

The next experiment has as its system CD8 T cells. The experiment can be described thus: CD8 T cell responses to immunodominant TT epitope after immunization. The conditions noted are these: three immunizations with TT856-1313 protein and CpG, blood, restimulated with […]. The experiment is classed as in vivo, BALB/cByJ mice.
Setting [3] is: TAM in metastases, 3 mice pooled.

Regarding `Nc1ccn([C@@H]2O[C@H](CO)[C@@H](O)C2(F)F)c(=O)n1` [GEM, gemcitabine], in the experiment with CD4 and CD8 T cells [1], the CD3CD4CD69 is 14.2 Percentage, the “CD3CD4Granzyme B” value was found to be 4.8 Percentage, the CD3CD4IFNγ was 2.7 Percentage and the CD3CD4Perforin was determined as 14.9 Percentage. In the experiment on CD4 and CD8 T cells [1], the CD3CD8CD69 came out at 15.5 Percentage, the “CD3CD8Granzyme B” value worked out at 1.1 Percentage, the CD3CD8IFNγ was 0.4 Percentage and the CD3CD8Perforin is recorded as 4.8 Percentage. In the experiment with CD4 and CD8 T cells [2], the CD3CD4CD69 stood at 10.01 Percentage, the “CD3CD4Granzyme B” value came to 3.5 Percentage, the CD3CD4IFNγ is 0.0 Percentage and the CD3CD4Perforin worked out at 7.90 Percentage. Further, in the experiment with CD4 and CD8 T cells [2], the CD3CD8CD69 came to 17.5 Percentage, the “CD3CD8Granzyme B” value was found to be 9.71 Percentage, the CD3CD8IFNγ is listed as 1.7 Percentage and the CD3CD8Perforin is 15.60 Percentage. Moreover, in the experiment on MDSC (CD11b+Gr1+) (MDSC in blood), the “CD80, Percentage of MDSC (CD11b+Gr1+) in Blood” value was determined as 1.78 Percentage; the “IL-6, Percentage of MDSC (CD11b+Gr1+) in Blood” value is recorded as 3.59 Percentage; the “IL-10, Percentage of MDSC (CD11b+Gr1+) in Blood” value was 2.76 Percentage; the “MARCO, Percentage of MDSC (CD11b+Gr1+) in Blood” value is 3.84 Percentage. Besides, the “TNFα, Percentage of MDSC (CD11b+Gr1+) in Blood” value in the experiment on MDSC (CD11b+Gr1+) (MDSC in blood) was 8.49 Percentage. Besides, the “MDSC population in blood” value with MDSC (CD11b+Gr1+) (two days after last treatment) is on record as “reduces the MDSC population”. Further, in the experiment on TAM (CD11b+F4/80+) (setting [3]), the “CD80, Percentage of TAM (CD11b+F4/80+) in Metastases” value is reported as 4.28 Percentage; the “IL-6, Percentage of TAM (CD11b+F4/80+) in Metastases” value was 1.25 Percentage; the “IL-10, Percentage of TAM (CD11b+F4/80+) in Metastases” value came to 1.47 Percentage; the “MARCO, Percentage of TAM (CD11b+F4/80+) in Metastases” value turned out to be 1.94 Percentage. In addition, the “TNFα, Percentage of TAM (CD11b+F4/80+) in Metastases” value in the experiment with TAM (CD11b+F4/80+) (setting [3]) was 8.85 Percentage. For the same molecule, the “TAM population in metastases” value with TAM (CD11b+F4/80+) (two days after last treatment) is recorded as “reduces the TAM population”.

B1: TT856-1313 protein: purified non-toxic C-terminal fragment of tetanus toxoid, amino acid positions 856-1313 (protein, UniProt P04958 856-1313, looked up, fragment)
chain: STPIPFSYSKNLDCWVDNEEDIDVILKKSTILNLDINNDIISDISGFNSSVITYPDAQLVPGINGKAIHLVNNESSEVIVHKAMDIEYNDMFNNFTVSFWLRVPKVSASHLEQYGTNEYSIISSMKKHSLSIGSGWSVSLKGNNLIWTLKDSAGEVRQITFRDLPDKFNAYLANKWVFITITNDRLSSANLYINGVLMGSAEITGLGAIREDNNITLKLDRCNNNNQYVSIDKFRIFCKALNPKEIEKLYTSYLSITFLRDFWGNPLRYDTEYYLIPVASSSKDVQLKNITDYMYLTNAPSYTNGKLNIYYRRLYNGLKFIIKRYTPNNEIDSFVKSGDFIKLYVSYNNNEHIVGYPKDGNAFNNLDRILRVGYNAPGIPLYKKMEAVKLRDLKTYSVQLKLYDDKNASLGLVGTHNGQIGNDPNRDILIASNWYFNHLKDKILGCDWYFVPTDEGWT
For B1, the “CD8 T cell responses to immunodominant epitope” value with CD8 T cells is reported as “CD8 T cells were activated”.

For the origin of these results see patent publication US11213577B2, “Treatment of cancer using recall antigens delivered by attenuated bacteria” (ALBERT EINSTEIN COLLEGE OF MEDICINE, INC., priority 2015, dated 2022).
